{
  "source": "ChEMBL document CHEMBL1151612",
  "about": "“Potential anticancer agents XXXII. Hydroquinone from Ipomopsis aggregata” (1984)",
  "key": {"KB": {"tested_on": "KB", "assay": "Cytotoxicity against human KB cells", "settings": "read-out: ED50"}, "P388": {"tested_on": "P388", "assay": "Cytotoxicity against mouse P388 cells", "settings": "P388, read-out: ED50"}},
  "data": [
    {"smiles": "Oc1ccc(O)cc1", "note": "[HYDROQUINONE]", "values": [
      {"measurement": "EC50", "setting": "KB", "result": 3.8, "unit": "µg/mL"},
      {"measurement": "EC50", "setting": "P388", "result": 2.2, "unit": "µg/mL"}
    ]}
  ]
}
